The test system of test [1] is Saccharomyces cerevisiae. Description: Antifungal activity against Saccharomyces cerevisiae YAT2285 erg6 mutant at <1.0 ug/disk by paper disk method. Format: functional, organism-based.
For the next test, the system named is L1210. Description: Cytotoxicity against mouse L1210 cells. The test is classed as functional, cell-based.
In test [2] the test system is Saccharomyces cerevisiae. Description: Antifungal activity against Saccharomyces cerevisiae YAT2285 erg6 mutant at 30 ug/disk by paper disk method. Format: functional, organism-based.
For test [3], the system named is Saccharomyces cerevisiae. The test can be described thus: Antifungal activity against Saccharomyces cerevisiae YAT2285 erg6 mutant at 100 ug/disk by paper disk method. Format: functional, organism-based.

SMILES strings stand for the structures. In brackets after ≈: the same amount, converted by molar mass. Activity calls are given as the source filed them. No cut-off for these calls is given here.

As for `O=C1C=C(Br)C(=O)N1`, the outcome with Saccharomyces cerevisiae [1] was Active. Besides, the midpoint of inhibition with L1210, the IC50, lay at 1.1 µg/mL (≈ 6.25 µM).
For the molecule `NC1=NC2c3c([nH]c(Br)c3Br)C(=O)N3C[C@H](Cl)[C@H](O)C23N1` (some centres not stated), in the test on Saccharomyces cerevisiae [2], the result was Active. This molecule also showed a half-inhibitory concentration (IC50) in the test on L1210 of 2.5 µg/mL (≈ 5.69 µM).
For the molecule `C[N+]1=CN[C@H](C(=O)[O-])C[C@@]1(C)COC(=O)c1cc(Br)c[nH]1`, the result in the test with Saccharomyces cerevisiae [3] was Active.
As to `O=C1NC(=O)C(Br)=C1Br`, the outcome in the test on Saccharomyces cerevisiae [1] was Active. This molecule gave an IC50 in the test with L1210 of 0.66 µg/mL (≈ 2.59 µM).

Source of the values: ChEMBL document CHEMBL1156398, “Four new bioactive pyrrole-derived alkaloids from the marine sponge Axinella brevistyla” (J Nat Prod, 2001).
